Assay results taken from ChEMBL document CHEMBL3616443, “Synthesis and biological evaluation of ring A and/or C expansion and opening echinocystic acid derivatives for anti-HCV entry inhibitors” (2015).
The source made the active and inactive calls. The rule behind the calls is not given here.

Assays:
Hepatitis C virus [1] = test: Antiviral activity against HCV psuedoparticles infected in human Huh7 cells assessed as inhibition of virus entry at 1 to 5 uM using Bright Glo reagent after 72 hrs by Luciferase reporter gene assay; type: functional
[2] = tested on: Vesicular stomatitis virus; test: Antiviral activity against VSV psuedoparticles infected in human Huh7 cells assessed as inhibition of virus entry at 1 to 5 uM using Bright Glo reagent after 72 hrs by Luciferase reporter gene assay; type: functional, organism-based; settings: Huh-7
Hepatitis C virus [3] = test: Antiviral activity against HCV psuedoparticles infected in human Huh7 cells assessed as inhibition of virus entry at 10 uM using Bright Glo reagent after 72 hrs by Luciferase reporter gene assay; type: functional, Hepacivirus hominis, Huh-7; parameters: scale not given: the % may be the effect or the level left

| SMILES | Activity (Hepatitis C virus [1]; Hepacivirus hominis, Huh-7) | Activity [2] | Activity (Hepatitis C virus [1]) [%] | Activity (Hepatitis C virus [3]) [%] |
| --- | --- | --- | --- | --- |
| COC(=O)[C@]12CCC(C)(C)C[C@H]1[C@H]1C(=O)OC[C@@H]3[C@@]4(C)CC[C@H](O)C(C)(C)[C@@H]4CC[C@@]3(C)[C@]1(C)C[C@H]2O | Active | inactive |  |  |
| CC1(C)CC[C@]2(C(=O)O)[C@H](O)C[C@]3(C)C(=CC[C@@H]4[C@@]5(C)CC[C@H](O)C(C)(C)[C@@H]5CC[C@]43C)[C@H]2C1 [ECHINOCYSTIC ACID] |  |  | 90 |  |
| CC1(C)CC[C@]2(C(=O)O)[C@H](O)C[C@]3(C)[C@H](C(=O)C=C4[C@@]5(C)CC[C@H](O)C(C)(C)[C@@H]5CC[C@]43C)[C@@H]2C1 | Active | inactive |  |  |
| CC1(C)CC[C@]2(C(=O)O)[C@H](O)C[C@]3(C)[C@H](C(=O)C[C@@H]4[C@@](C)(CCC(=O)O)[C@H](C(C)(C)O)CC[C@]43C)[C@@H]2C1 | Active | inactive |  |  |
| CC1(C)CC[C@]2(CO)[C@H](O)C[C@@](C)([C@]3(C)CC[C@H]4C(C)(C)[C@@H](O)CC[C@]4(C)C3CCO)C(O)[C@@H]2C1 (stereo not given in full) | Active | inactive |  |  |
| CC1(C)CC[C@]2(C(=O)O)[C@H](O)C[C@]3(C)[C@H](OC(=O)C[C@@H]4[C@@]5(C)CCC(=O)OC(C)(C)[C@@H]5CC[C@]43C)[C@@H]2C1 | Active | inactive |  |  |
| C=C(C)[C@@H]1CC[C@]2(C(=O)O)CC[C@]3(C)[C@H](CC[C@@H]4[C@@]5(C)CC[C@H](O)C(C)(C)[C@@H]5CC[C@]43C)[C@@H]12 [BETULINIC ACID] |  |  |  | 75 |
| CC1(C)CC[C@]2(C(=O)O)[C@H](O)C[C@]3(C)[C@H](C(=O)OC[C@@H]4[C@@](C)(CCC(=O)O)[C@H](C(C)(C)O)CC[C@]43C)[C@@H]2C1 | Active | inactive |  |  |
| CC1(C)[C@@H](O)CC[C@]2(C)[C@H]3C(=O)C=C4[C@@H]5C[C@@](C)(C(=O)O)CC[C@]5(C)CC[C@@]4(C)[C@]3(C)CC[C@@H]12 [ENOXOLONE] |  |  |  | 5 |
| COC(=O)[C@]12CCC(C)(C)C[C@H]1[C@H]1OC(=O)C[C@@H]3[C@@]4(C)CC[C@H](O)C(C)(C)[C@@H]4CC[C@@]3(C)[C@]1(C)C[C@H]2O | Active | inactive |  |  |
| CC1(C)CC[C@]2(CO)[C@H](O)C[C@]3(C)[C@H](C(O)C[C@@H]4[C@@](C)(CCCO)[C@H](C(C)(C)O)CC[C@]43C)[C@@H]2C1 (stereo not given in full) | Active | inactive |  |  |
| CC1(C)CC[C@]2(C(=O)O)[C@H](O)C[C@]3(C)[C@H](C(=O)OC[C@@H]4[C@@]5(C)CC[C@H](O)C(C)(C)[C@@H]5CC[C@]43C)[C@@H]2C1 | Active | inactive |  |  |
| CC1(C)CC[C@]2(C(=O)O)[C@H](O)C[C@]3(C)[C@H](OC(=O)C[C@@H]4[C@@](C)(CCC(=O)O)[C@H](C(C)(C)O)CC[C@]43C)[C@@H]2C1 | Active | inactive |  |  |
| C[C@H]1[C@H](C)CC[C@]2(C(=O)O)CC[C@]3(C)C(=CC[C@@H]4[C@@]5(C)CC[C@H](O)C(C)(C)[C@@H]5CC[C@]43C)[C@H]12 [URSOLIC ACID] |  |  |  | 30 |
| CC1(C)CC[C@]2(C(=O)O)[C@H](O)C[C@]3(C)[C@H](C(=O)C[C@@H]4[C@@]5(C)CCC(=O)OC(C)(C)[C@@H]5CC[C@]43C)[C@@H]2C1 | Active | inactive |  |  |
| CC1(C)CC[C@]2(C(=O)O)[C@H](O)C[C@]3(C)[C@H](OC(=O)C[C@@H]4[C@@]5(C)CC[C@H](O)C(C)(C)[C@@H]5CC[C@]43C)[C@@H]2C1 | Active | inactive |  |  |
| CC1(C)CC[C@]2(C(=O)O)[C@H](O)C[C@]3(C)[C@H](C(=O)OC[C@@H]4[C@@]5(C)CCC(=O)OC(C)(C)[C@@H]5CC[C@]43C)[C@@H]2C1 | Active | inactive |  |  |
